US20240254087A1, “SELECTIVE, PARTIAL, AND ARRESTIN-BIASED 5-HT2A AGONISTS WITH UTILITY IN VARIOUS DISORDERS” (Saint Joseph's University, priority 2021, published 2024)
Read-outs that look alike come from different tables or passages of the source.

Columns and labels:
Design in all cases: expressed in transfected cells; host or cells: HEK293T, transient
[1] = target: T1, 5-HT2A (Homo sapiens, UniProt P28223); assay: cell-based; settings: for Emax: read-out: 5-HT2A β-arrestin Emax (% 5-HT), BRET, mean ± SEM
T1 sequence (P28223 whole entry): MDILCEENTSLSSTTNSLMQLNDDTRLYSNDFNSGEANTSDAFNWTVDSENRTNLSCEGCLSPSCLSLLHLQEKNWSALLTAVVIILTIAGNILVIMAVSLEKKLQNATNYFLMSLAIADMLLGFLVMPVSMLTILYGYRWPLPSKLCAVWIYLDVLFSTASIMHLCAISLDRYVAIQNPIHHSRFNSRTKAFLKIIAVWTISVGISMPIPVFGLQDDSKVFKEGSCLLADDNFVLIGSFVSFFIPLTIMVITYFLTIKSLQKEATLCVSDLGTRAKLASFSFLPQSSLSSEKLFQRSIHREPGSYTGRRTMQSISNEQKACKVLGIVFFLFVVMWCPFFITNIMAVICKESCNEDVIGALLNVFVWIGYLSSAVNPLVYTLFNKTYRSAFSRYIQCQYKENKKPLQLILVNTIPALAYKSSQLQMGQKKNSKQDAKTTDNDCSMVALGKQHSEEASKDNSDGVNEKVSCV
Procedure: (§1) After at least 18-24 hours, transfected cells were plated in poly-lysine coated 96-well white clear bottom cell culture plates in DMEM containing 1% dialyzed FBS at a density of 25-40,000 cells in 200 μL per well and incubated overnight. After approximately 20-24 hours, media was decanted and cells were washed with 60 μL of drug buffer (1×HBSS, 20 mM HEPES, pH 7.4), followed by 60 μL of drug buffer and pre-incubated in a humidified atmosphere at 37° C. before receiving drug stimulation. Drug stimulation was induced by adding 30 μL of a solution of drug (3X) diluted in McCorvy buffer (1×HBSS, 20 mM HEPES, pH 7.4, supplemented with 0.3% BSA fatty acid free, 0.03% ascorbic acid) and plates were incubated at the indicated time and temperature. Fifteen minutes before reading, 10 μL of the RLuc substrate, either coelenterazine h for β-Arrestin recruitment BRET^1 or coelenterazine 400a for Gq dissociation BRET^2 (Prolume/Nanolight, 5 μM final concentration) was addedper well. […] The BRET ratios of fluorescence/luminescence were calculated per well and were plotted as a function of drug concentration using Graphpad Prism 8 (Graphpad Software Inc., San Diego, CA).

[2] = target: T1, 5-HT2A; assay: cell-based; settings: for Emax: read-out: 5-HT2A Gq Emax (% 5-HT), BRET, mean ± SEM
Procedure: as §1

[3] = target: 5-HT2B (Homo sapiens, UniProt P41595); assay: BRET Gq dissociation, 5-HT2B; assay type: cell-based
Sequence of 5-HT2B (P41595 whole entry): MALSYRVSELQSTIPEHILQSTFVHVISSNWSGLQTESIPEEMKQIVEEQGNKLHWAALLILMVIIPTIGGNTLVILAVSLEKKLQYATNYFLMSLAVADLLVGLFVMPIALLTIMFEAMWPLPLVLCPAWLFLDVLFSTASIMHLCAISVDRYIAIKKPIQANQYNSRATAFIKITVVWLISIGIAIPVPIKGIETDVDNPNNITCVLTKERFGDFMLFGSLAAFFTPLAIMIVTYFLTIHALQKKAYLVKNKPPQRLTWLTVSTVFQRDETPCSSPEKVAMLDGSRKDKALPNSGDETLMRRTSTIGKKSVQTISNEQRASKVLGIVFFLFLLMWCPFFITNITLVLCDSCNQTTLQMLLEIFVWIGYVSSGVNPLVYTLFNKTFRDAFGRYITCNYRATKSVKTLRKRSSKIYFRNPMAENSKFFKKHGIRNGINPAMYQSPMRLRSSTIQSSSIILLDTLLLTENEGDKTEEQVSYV
Procedure: After at least 18-24 hours, transfected cells were plated in poly-lysine coated 96-well white clear bottom cell culture plates in DMEM containing 1% dialyzed FBS at a density of 25-40,000 cells in 200 μL per well and incubated overnight. After approximately 20-24 hours, media was decanted and cells were washed with 60 μL of drug buffer (1×HBSS, 20 mM HEPES, pH 7.4), followed by 60 μL of drug buffer and pre-incubated in a humidified atmosphere at 37° C. before receiving drug stimulation. Drug stimulation was induced by adding 30 μL of a solution of drug (3X) diluted in McCorvy buffer (1×HBSS, 20 mM HEPES, pH 7.4, supplemented with 0.3% BSA fatty acid free, 0.03% ascorbic acid) and plates were incubated at the indicated time and temperature. Fifteen minutes before reading, 10 μL of the RLuc substrate, either coelenterazine h for β-Arrestin recruitment BRET^1 or coelenterazine 400a for Gq dissociation BRET^2 (Prolume/Nanolight, 5 μM final concentration) was addedper well. Plates were read for luminescence at 485 nm and fluorescent eYFP emission at 530 nm for BRET^1 and at 400 nm and fluorescent GFP2 emission at 510 nm for BRET2 at 1 second per well using a Mithras LB940 (Berthold). The BRET ratios of fluorescence/luminescence were calculated per well and were plotted as a function of drug concentration using Graphpad Prism 8 (Graphpad Software Inc., San Diego, CA).

[4] = target: T2, 5-HT2C (Homo sapiens, UniProt P28335); assay: BRET Gq dissociation, 5-HT2C; assay type: cell-based; settings: for Emax: read-out: 5-HT2C Gq Dissociation (BRET) EMAX ± SEM (%5-HT)
T2 sequence (P28335 33-458): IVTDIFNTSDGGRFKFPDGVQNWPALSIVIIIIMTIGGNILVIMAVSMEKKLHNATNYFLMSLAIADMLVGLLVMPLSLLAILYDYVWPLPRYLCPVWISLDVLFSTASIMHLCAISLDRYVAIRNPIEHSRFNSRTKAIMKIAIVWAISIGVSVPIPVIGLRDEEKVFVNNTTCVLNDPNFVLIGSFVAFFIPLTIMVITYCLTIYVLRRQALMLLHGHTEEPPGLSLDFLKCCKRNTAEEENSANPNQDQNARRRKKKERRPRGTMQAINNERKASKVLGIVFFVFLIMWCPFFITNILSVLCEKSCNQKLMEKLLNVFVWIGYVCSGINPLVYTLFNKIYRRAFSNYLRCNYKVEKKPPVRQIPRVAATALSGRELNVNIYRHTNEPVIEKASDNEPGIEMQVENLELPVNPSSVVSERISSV
Procedure: as §1

[5] = BRET, mean ± SEM, read-out: 5-HT2A β-arrestin recruitment pEC50 (converted)
[6] = read-out: 5-HT2C Gq Dissociation (BRET) pEC50 ± SEM (converted)
[7] = BRET, mean ± SEM, read-out: 5-HT2A Gq dissociation pEC50 (converted)

Structure (SMILES)	Emax [1] [%]	Emax [2] [%]	5-HT2B Gq Dissociation (BRET) EMAX ± SEM (%5-HT) [3]	5-HT2B Gq Dissociation (BRET) pEC50 ± SEM [3]	EC50 [1, 5] [nM]	Emax [4] [%]	EC50 [4, 6] [nM]	EC50 [2, 7] [nM]	EC50 [2] [nM]	EC50 [1] [nM]	EC50 [4] [nM]	5-HT2A β-arrestin Emax (% 5-HT) ([1]; BRET, mean ± SEM)	5-HT2A β-arrestin recruitment pEC50 ([1]; BRET, mean ± SEM)	5-HT2A Gq Emax (% 5-HT) ([2]; BRET, mean ± SEM)	5-HT2A Gq dissociation pEC50 ([2]; BRET, mean ± SEM)
COc1cc(CCNCc2cccc3ccccc23)c(OC)cc1C [25D-N1-Nap (27)]	75.5 ± 2.4	34.3 ± 2.9	–	–	–	–	–	–	–	–	–	–	–	–	–
COc1cc(CCNCc2ccccc2-c2ccccc2)c(OC)cc1C [25D-NBPh (28)]	107 ± 4.7	23.2 ± 4.8	–	–	–	–	–	–	–	–	–	–	–	–	–
Brc1c2c(c(CCNCc3cccc4ccccc34)c3c1OCC3)OCC2 [(29)]	62.5 ± 2.3	31.8 ± 1.4	No activity	No activity	1.02	78.1 ± 2.1	4.17	8.71	–	–	–	–	–	–	–
COc1cc(Br)c(CCNCc2cccc3ccccc23)cc1OC [(30)]	65.1 ± 3	32.3 ± 1.6	No activity	No activity	4.47	81.4 ± 3.4	66.1	42.7	–	–	–	–	–	–	–
COc1cc(CCNCc2cccc3ccccc23)cc(OC)c1Br [(31), 2-(4-bromo-3,5-dimethoxyphenyl)-N-[(naphthalen-1-yl)-methyl]ethan-1-amine]	50.8 ± 3.4	20.3 ± 1.9	No activity	No activity	35.5	80.2 ± 2.2	41.7	–	170	–	–	–	–	–	–
COc1cc(Br)cc(OC)c1CCNCc1cccc2ccccc12 [(32)]	85.5 ± 2	33 ± 1.1	No activity	No activity	1.05	81 ± 1.6	6.31	3.89	–	–	–	–	–	–	–
COc1cc(Br)cc(OC)c1CC(C)NCc1cccc2ccccc12 (stereo not drawn) [(33)]	98.3 ± 3.3	36.6 ± 1.1	No activity	No activity	4.9	80.3 ± 2.4	64.6	31.6	–	–	–	–	–	–	–
COc1cc(Cl)ccc1CCNCc1cccc2ccccc12 [(34)]	83.6 ± 3.6	25.2 ± 2	No activity	No activity	–	75.9 ± 1.7	38	–	–	–	–	–	–	–	–
COc1cc(Br)c(Br)c(OC)c1CCNCc1cccc2ccccc12 [(35)]	–	30.2 ± 1.5	No activity	No activity	1.95	69.8 ± 1.3	5.5	3.89	–	–	–	–	–	–	–
COc1cc(Br)ccc1CCNCc1cccc2ccccc12 [(36)]	80.2 ± 3.1	26.3 ± 1.2	No activity	No activity	–	76 ± 1.8	24.5	–	–	–	–	–	–	–	–
CCOc1ccc(CCNCc2cccc3ccccc23)cc1OC [(37)]	75.4 ± 2.4	29.3 ± 1.9	No activity	No activity	–	84.5 ± 2.8	263	–	–	–	–	–	–	–	–
COc1cc(CCNCc2cccc3ccccc23)ccc1Cl [(40)]	80.8 ± 3.8	29.9 ± 1.8	No activity	No activity	–	87.8 ± 2	97.7	–	–	–	–	–	–	–	–
COc1cc(Br)ccc1CCNCc1cccc(C)c1O [(41)]	86.6 ± 3.9	68.7 ± 1.3	No activity	No activity	2.51	72.2 ± 1.6	4.9	2.24	–	–	–	–	–	–	–
COc1cc(Br)cc(OC)c1CCNCc1cccc(C)c1O [(42)]	78.9 ± 3.7	69.2 ± 1.5	No activity	No activity	0.513	78.1 ± 1.6	1.51	1.1	–	–	–	–	–	–	–
COc1cc(Br)c(CCNCc2cccc(C)c2O)cc1OC [(43), 2-(((2-bromo-4,5-dimethoxyphenethyl)-amino)-methyl)-6-methylphenol]	91.7 ± 3.4	65.4 ± 1.4	No activity	No activity	–	75.4 ± 2	–	–	6.46	6.31	20.9	–	–	–	–
COc1cc(CCNCc2cccc(C)c2O)cc(OC)c1Br [(44)]	66.1 ± 2.8	70.4 ± 1.2	No activity	No activity	11.2	80.2 ± 2.1	7.08	12	–	–	–	–	–	–	–
COc1cc(Br)c(Br)c(OC)c1CCNCc1cccc(C)c1O [(45)]	77.5 ± 6	70.5 ± 2	No activity	No activity	1.32	81 ± 2.1	1.51	2.24	–	–	–	–	–	–	–
COc1cc(Cl)ccc1CC(C)NCc1cccc(C)c1O (stereo not drawn) [(46)]	72.9 ± 5.6	67.8 ± 1.6	No activity	No activity	1.12	95.5 ± 3.2	11.5	4.79	–	–	–	–	–	–	–
COc1cc(CCNCc2cccc(C)c2O)ccc1Cl [(47)]	80.5 ± 3.2	66.9 ± 1.8	No activity	No activity	6.92	98 ± 3.1	19.5	30.9	–	–	–	–	–	–	–
COc1cc(CCNC2CCc3ccccc32)c(OC)cc1C (stereo not drawn) [(83)]	112 ± 11.5	50.7 ± 7	–	–	8.13	–	–	6.31	–	–	–	–	–	–	–
COc1cc(CCNC2CCc3cccc(O)c32)c(OC)cc1C (stereo not drawn) [(84)]	113 ± 4.3	71.9 ± 4.9	–	–	3.47	–	–	2.69	–	–	–	–	–	–	–
COc1cc(CCNC2Cc3ccccc3C2)c(OC)cc1C [(85)]	70.9 ± 5.1	53.5 ± 4.3	–	–	5.13	–	–	17.8	–	–	–	–	–	–	–
COc1cc(CCN)c(OC)cc1Br [Compound 2C-B, reference compound]	–	–	97.4 ± 1.4 %5-HT	7.90 ± 0.04	–	–	–	–	–	–	–	84.0 ± 1.0	8.62 ± 0.04	100.8 ± 0.9	8.92 ± 0.03
CN(C)CCc1c[nH]c2ccccc12 [DMT, reference compound]	–	–	–	–	–	–	–	–	–	–	–	64 ± 3	7.12 ± 0.13	76 ± 2	7.17 ± 0.07
